From paper PMC10221074, “Functional Profiling of the A-Family of Venom Peptides from the Wolf Spider Lycosa shansia” (Toxins, 2023)

What was measured:
[1] = tested on: B/Malaysia/2506/2004 (B-Mal); assay type: cell-based, influenza virus
A/Hamburg/05/2009 (H1N1) = assay type: cell-based, influenza virus
A/Hessen/1/2003 (H3N2) = assay type: cell-based, influenza virus
[2] = tested on: panel of seven bacterial strains; experiment: Antibacterial growth assay (OD600), statements on the whole panel; assay type: cell-based; settings: growth after 48 h
[3] = tested on: Pseudomonas aeruginosa DSM 1117; experiment: Antibacterial growth assay (OD600); settings: for Bacterial growth relative to medium, P. aeruginosa (1117), replicate 1 / Bacterial growth relative to medium, P. aeruginosa (1117), replicate 2 / Bacterial growth relative to medium, P. aeruginosa (1117), replicate 3: OD600, medium = 100, MH II broth; for Bacterial growth relative to medium, P. aeruginosa (1117), replicate 1: replicate column 1; for Bacterial growth relative to medium, P. aeruginosa (1117), replicate 2: replicate column 2; for Bacterial growth relative to medium, P. aeruginosa (1117), replicate 3: replicate column 3
Description: (§1) Cryo-conserved cultures of selected bacterial strains (Table 4) were transferred to Tryptic Soy Agar (TSA) plates (Carl Roth) with a sterile inoculation loop, sealed with Parafilm (BEMIS, Neenah, WI, USA), and incubated for 1–2 days at 37 °C depending on growth. Single colonies were picked and transferred into 2–3 mL of the Mueller–Hinton II (MH II) broth (BD, Heidelberg, Germany). The bacteria were cultivated overnight, subcultured on fresh medium and grown for 3–4 h before testing at 37 °C, with shaking at 180 rpm. We measured the optical density at 600 nm (OD600) of 1 mL of the bacterial suspensions in polystyrene cuvettes (SARSTED, Nümbrecht, Germany) using an Ultrospec 10 spectrophotometer (Biochrome, Cambridge, UK). We then diluted them with the MH II medium to the preferred OD600 (Table 2). The peptides were dissolved in DMSO to generate 10 mmol/L stocks and diluted with the MH II medium to 200 µM before the assay. We used 10 µg/mL (~40 µg/mL for S. epidermidis) gentamicin and colistin (Sigma-Aldrich, Taufkirchen, Germany), DMSO and the medium only as controls. The bacteria were transferred to 96-multiwell plates with a final volume of 100 µL per well (50 µL bacterial suspension, and 50 µL test peptide). The OD600 was measured at 0, 24 and 48 h using a BioTek Eon microplate reader followed by analysis with Gen5 v2.09.

[4] = tested on: Pseudomonas aeruginosa DSM 50071; experiment: Antibacterial growth assay (OD600); settings: for Bacterial growth relative to medium, P. aeruginosa (50071), replicate 1 / Bacterial growth relative to medium, P. aeruginosa (50071), replicate 2 / Bacterial growth relative to medium, P. aeruginosa (50071), replicate 3: OD600, medium = 100, MH II broth; for Bacterial growth relative to medium, P. aeruginosa (50071), replicate 1: replicate column 1; for Bacterial growth relative to medium, P. aeruginosa (50071), replicate 2: replicate column 2; for Bacterial growth relative to medium, P. aeruginosa (50071), replicate 3: replicate column 3
Description: as §1

[5] = tested on: Micrococcus luteus DSM 20030; experiment: Antibacterial growth assay (OD600); settings: OD600, medium = 100, MH II broth; for Bacterial growth relative to medium, M. luteus, replicate 1: replicate column 1; for Bacterial growth relative to medium, M. luteus, replicate 2: replicate column 2; for Bacterial growth relative to medium, M. luteus, replicate 3: replicate column 3
[6] = tested on: Staphylococcus aureus DSM 2569; experiment: Antibacterial growth assay (OD600); settings: OD600, medium = 100, MH II broth; for Bacterial growth relative to medium, S. aureus, replicate 1: replicate column 1; for Bacterial growth relative to medium, S. aureus, replicate 2: replicate column 2; for Bacterial growth relative to medium, S. aureus, replicate 3: replicate column 3
[7] = tested on: Escherichia coli BL21(DE3); experiment: Antibacterial growth assay (OD600); settings: OD600, medium = 100, MH II broth; for Bacterial growth relative to medium, E. coli, replicate 1: replicate column 1; for Bacterial growth relative to medium, E. coli, replicate 2: replicate column 2; for Bacterial growth relative to medium, E. coli, replicate 3: replicate column 3
Description: as §1

[8] = tested on: Listeria monocytogenes DSM 20600; experiment: Antibacterial growth assay (OD600); settings: for Bacterial growth relative to medium, L. monocytogenes, replicate 1 / Bacterial growth relative to medium, L. monocytogenes, replicate 2 / Bacterial growth relative to medium, L. monocytogenes, replicate 3: OD600, medium = 100, MH II broth; for Bacterial growth relative to medium, L. monocytogenes, replicate 1: replicate column 1; for Bacterial growth relative to medium, L. monocytogenes, replicate 2: replicate column 2; for Bacterial growth relative to medium, L. monocytogenes, replicate 3: replicate column 3
Description: as §1

[9] = tested on: Staphylococcus epidermidis DSM 28319; experiment: Antibacterial growth assay (OD600); settings: for Bacterial growth relative to medium, S. epidermidis, replicate 1: replicate column 1; for Bacterial growth relative to medium, S. epidermidis, replicate 2: replicate column 2; for Bacterial growth relative to medium, S. epidermidis, replicate 3: replicate column 3
[10] = 37 °C, peptide 200 µM mixed 50 µL + 50 µL with bacteria, Figure 7: 48 h
[11] = OD600, medium = 100, MH II broth, 37 °C, peptide 200 µM mixed 50 µL + 50 µL with bacteria, Figure 7: 48 h
[12] = antibiotic control, table line says 10µg/mL (methods: ~40 µg/mL for S. epidermidis), OD600, medium = 100

SLFGLLDLVKSKVGQTGLL [LS-AMP-A1]
Viability of infected cells relative to aprotinin, Replicate 1 [1]: 0.04827 | Viability of infected cells relative to aprotinin, Replicate 2 [1]: 0.03878 | Viability of infected cells relative to aprotinin, Replicate 3 [1]: 0.05872 | Viability of infected cells relative to aprotinin, Replicate 1 (A/Hamburg/05/2009 (H1N1)): 0.03121 | Viability of infected cells relative to aprotinin, Replicate 2 (A/Hamburg/05/2009 (H1N1)): 0.03837 | Viability of infected cells relative to aprotinin, Replicate 3 (A/Hamburg/05/2009 (H1N1)): 0.04316 | Viability of infected cells relative to aprotinin, Replicate 1 (A/Hessen/1/2003 (H3N2)): 0.185 | Viability of infected cells relative to aprotinin, Replicate 2 (A/Hessen/1/2003 (H3N2)): 0.1781 | Viability of infected cells relative to aprotinin, Replicate 3 (A/Hessen/1/2003 (H3N2)): 0.1313 | Antibacterial activity over the panel (in words) [2]: limited activity | Bacterial growth relative to medium, P. aeruginosa (1117), replicate 1 [3, 10]: 79.0357 | Bacterial growth relative to medium, P. aeruginosa (1117), replicate 2 [3, 10]: 70.5187 | Bacterial growth relative to medium, P. aeruginosa (1117), replicate 3 [3, 10]: 73.1051 | Bacterial growth relative to medium, P. aeruginosa (50071), replicate 1 [4, 10]: 100.105 | Bacterial growth relative to medium, P. aeruginosa (50071), replicate 2 [4, 10]: 111.979 | Bacterial growth relative to medium, P. aeruginosa (50071), replicate 3 [4, 10]: 89.7927 | Bacterial growth relative to medium, M. luteus, replicate 1 [5, 10]: 73.9935 | Bacterial growth relative to medium, M. luteus, replicate 2 [5, 10]: 135.023 | Bacterial growth relative to medium, M. luteus, replicate 3 [5, 10]: 50.2152 | Bacterial growth relative to medium, S. aureus, replicate 1 [6, 10]: 106.033 | Bacterial growth relative to medium, S. aureus, replicate 2 [6, 10]: 110.791 | Bacterial growth relative to medium, S. aureus, replicate 3 [6, 10]: 108.193 | Bacterial growth relative to medium, E. coli, replicate 1 [7, 10]: 153.553 | Bacterial growth relative to medium, E. coli, replicate 2 [7, 10]: 169.757 | Bacterial growth relative to medium, E. coli, replicate 3 [7, 10]: 114.343 | Bacterial growth relative to medium, L. monocytogenes, replicate 1 [8, 10]: 93.4804 | Bacterial growth relative to medium, L. monocytogenes, replicate 2 [8, 10]: 90.3626 | Bacterial growth relative to medium, L. monocytogenes, replicate 3 [8, 10]: 102.296 | Bacterial growth relative to medium, S. epidermidis, replicate 1 [9, 11]: 132.924 | Bacterial growth relative to medium, S. epidermidis, replicate 2 [9, 11]: 152.819 | Bacterial growth relative to medium, S. epidermidis, replicate 3 [9, 11]: 103.22

SLLGLLDVVKSKIGQTG [LS-AMP-A14]
Viability of infected cells relative to aprotinin, Replicate 1 [1]: 0.05534 | Viability of infected cells relative to aprotinin, Replicate 2 [1]: 0.06456 | Viability of infected cells relative to aprotinin, Replicate 3 [1]: 0.1102 | Viability of infected cells relative to aprotinin, Replicate 1 (A/Hamburg/05/2009 (H1N1)): 0.03385 | Viability of infected cells relative to aprotinin, Replicate 2 (A/Hamburg/05/2009 (H1N1)): 0.02545 | Viability of infected cells relative to aprotinin, Replicate 3 (A/Hamburg/05/2009 (H1N1)): 0.02099 | Viability of infected cells relative to aprotinin, Replicate 1 (A/Hessen/1/2003 (H3N2)): 0.07143 | Viability of infected cells relative to aprotinin, Replicate 2 (A/Hessen/1/2003 (H3N2)): 0.146 | Viability of infected cells relative to aprotinin, Replicate 3 (A/Hessen/1/2003 (H3N2)): 0.0602 | Viability of infected cells relative to aprotinin, Replicate 4 (A/Hessen/1/2003 (H3N2); […], replicate 4 (additional internal control)): 0.04395 | Bacterial growth relative to medium, P. aeruginosa (1117), replicate 1 [3, 10]: 84.8429 | Bacterial growth relative to medium, P. aeruginosa (1117), replicate 2 [3, 10]: 62.4783 | Bacterial growth relative to medium, P. aeruginosa (1117), replicate 3 [3, 10]: 58.9547 | Antibacterial activity (in words) ([3]; P. aeruginosa DSM 1117, growth after 48 h): weak activity | Bacterial growth relative to medium, P. aeruginosa (50071), replicate 1 [4, 10]: 100.972 | Bacterial growth relative to medium, P. aeruginosa (50071), replicate 2 [4, 10]: 116.001 | Bacterial growth relative to medium, P. aeruginosa (50071), replicate 3 [4, 10]: 81.6852 | Antibacterial activity (in words) ([4]; P. aeruginosa DSM 50071, growth after 48 h): weak activity | Bacterial growth relative to medium, M. luteus, replicate 1 [5, 10]: 101.208 | Bacterial growth relative to medium, M. luteus, replicate 2 [5, 10]: 114.302 | Bacterial growth relative to medium, M. luteus, replicate 3 [5, 10]: 44.4763 | Bacterial growth relative to medium, S. aureus, replicate 1 [6, 10]: 81.4506 | Bacterial growth relative to medium, S. aureus, replicate 2 [6, 10]: 83.1916 | Bacterial growth relative to medium, S. aureus, replicate 3 [6, 10]: 66.5171 | Bacterial growth relative to medium, E. coli, replicate 1 [7, 10]: 109.705 | Bacterial growth relative to medium, E. coli, replicate 2 [7, 10]: 98.8412 | Bacterial growth relative to medium, E. coli, replicate 3 [7, 10]: 96.3776 | Antibacterial activity (in words) ([8]; L. monocytogenes DSM 20600, growth after 48 h): more active | Bacterial growth relative to medium, L. monocytogenes, replicate 1 [8, 10]: 102.734 | Bacterial growth relative to medium, L. monocytogenes, replicate 2 [8, 10]: 82.6703 | Bacterial growth relative to medium, L. monocytogenes, replicate 3 [8, 10]: 49.785 | Bacterial growth relative to medium, S. epidermidis, replicate 1 [9, 11]: 97.145 | Bacterial growth relative to medium, S. epidermidis, replicate 2 [9, 11]: 104.641 | Bacterial growth relative to medium, S. epidermidis, replicate 3 [9, 11]: 74.4979

colistin [Polymyx, reference compound]
Bacterial growth relative to medium, P. aeruginosa (1117), replicate 1 ([3]; antibiotic control 10µg/mL): 8.3082 | Bacterial growth relative to medium, P. aeruginosa (1117), replicate 2 ([3]; antibiotic control 10µg/mL): 7.355 | Bacterial growth relative to medium, P. aeruginosa (1117), replicate 3 ([3]; antibiotic control 10µg/mL): 3.543 | Bacterial growth relative to medium, P. aeruginosa (50071), replicate 1 ([4]; antibiotic control 10µg/mL): 5.416 | Bacterial growth relative to medium, P. aeruginosa (50071), replicate 2 ([4]; antibiotic control 10µg/mL): 11.2545 | Bacterial growth relative to medium, P. aeruginosa (50071), replicate 3 ([4]; antibiotic control 10µg/mL): 11.5437 | Bacterial growth relative to medium, M. luteus, replicate 1 ([5]; antibiotic control 10µg/mL): 34.787 | Bacterial growth relative to medium, M. luteus, replicate 2 ([5]; antibiotic control 10µg/mL): 53.8113 | Bacterial growth relative to medium, M. luteus, replicate 3 ([5]; antibiotic control 10µg/mL): 47.1539 | Bacterial growth relative to medium, S. aureus, replicate 1 ([6]; antibiotic control 10µg/mL): 85.0041 | Bacterial growth relative to medium, S. aureus, replicate 2 ([6]; antibiotic control 10µg/mL): 99.7935 | Bacterial growth relative to medium, S. aureus, replicate 3 ([6]; antibiotic control 10µg/mL): 95.4465 | Bacterial growth relative to medium, E. coli, replicate 1 ([7]; antibiotic control 10µg/mL): 15.553 | Bacterial growth relative to medium, E. coli, replicate 2 ([7]; antibiotic control 10µg/mL): 16.1645 | Bacterial growth relative to medium, E. coli, replicate 3 ([7]; antibiotic control 10µg/mL): 11.9401 | Bacterial growth relative to medium, L. monocytogenes, replicate 1 ([8]; antibiotic control 10µg/mL): 82.3087 | Bacterial growth relative to medium, L. monocytogenes, replicate 2 ([8]; antibiotic control 10µg/mL): 64.4034 | Bacterial growth relative to medium, L. monocytogenes, replicate 3 ([8]; antibiotic control 10µg/mL): 78.447 | Bacterial growth relative to medium, S. epidermidis, replicate 1 [9, 12]: 77.611 | Bacterial growth relative to medium, S. epidermidis, replicate 2 [9, 12]: 72.7124 | Bacterial growth relative to medium, S. epidermidis, replicate 3 [9, 12]: 81.8478
